As a reminder, the IC50 is the concentration that inhibits the measured activity by half.

The values below come from patent US7803801B2, “Aminopyridine compounds having Syk inhibitory activity” (Japan Tobacco, Inc., priority 2005, dated 2010).

In test [1] the target is GST-Syk Full Protein (human) (Homo sapiens, UniProt P43405). In words: Syk kinase inhibition test (HTRF method). To be noted: Tables 1-x, compounds A; read-out: sykHTRF ave IC50. The class given is biochemical. The method, boiled down:
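HTRF read-out: after EDTA termination and 1 h with XL665-streptavidin and Eu-anti-phosphotyrosine, the 665/620 nm ratio was measured. The reaction ran 30 min at 20–25 °C with final 6.4 nM human GST-Syk, 250 nM biotinylated peptide, 100 μM ATP, pH 7.0 HEPES buffer, 2% DMSO.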

Test [2] concerns cultured human mast cells. The test can be described thus: Degranulation inhibition test using cultured human mast cells (IgE cross-linking, β-Hexosaminidase release). The class given is cell-based. To be noted: Mast cell; Tables 1-x, compounds A; cultured human mast cells; read-out: human degranulation ave. IC50. An outline of the steps:
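Degranulation was triggered by anti-hIgE (10 μg/mL final, 30 min, 37 °C) after a 10-min compound pretreatment (DMSO 0.1%) of cord-blood CD34+-derived mast cells primed 5 days with IL-4 and IgE. β-Hexosaminidase in supernatant was measured with p-nitrophenyl-GlcNAc substrate (A405), expressed against water-lysed total; IC50 (M).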

Turning to `COCCN(C)c1ncc(-c2cccc(Nc3cc(C)ccn3)n2)s1` [Compound A-520, N-(2-methoxyethyl)-N-methyl-N-{5-[6-(4-methylpyridin-2-ylamino)pyridin-2-yl]thiazol-2-yl}amine], the results for the half-maximal inhibitory concentration (IC50) in test [1] and in test [2] were < 100 nM and 100 to 1000 nM, respectively.
For `CC(=O)N1CCC(N(CCNS(C)(=O)=O)c2ncc(-c3cccc(Nc4cc(C)ccn4)n3)s2)CC1` [Compound A-524, N-[2-(N′-(1-acetylpiperidin-4-yl)-N′-{5-[6-(4-methylpyridin-2-ylamino)pyridin-2-yl]thiazol-2-yl}amino)ethyl]methanesulfonamide], in that order: < 100 nM and > 1000 nM.
Take `CC(=O)N1CCC(N(CCO)c2ncc(-c3cccc(Nc4cc(C)ccn4)n3)s2)CC1` [Compound A-525, 1-[4-(N-(2-hydroxyethyl)-N-{5-[6-(4-methylpyridin-2-ylamino)pyridin-2-yl]thiazol-2-yl}amino)piperidin-1-yl]ethanone]: the figures for the half-maximal inhibitory concentration (IC50) in test [1] and in test [2] were < 100 nM and 100 to 1000 nM, respectively.
As for `COCCN(c1ncc(-c2cccc(Nc3cc(C)ccn3)n2)s1)C1CCN(C(C)=O)CC1` [Compound A-526, 1-[4-(N-(2-methoxyethyl)-N-{5-[6-(4-methylpyridin-2-ylamino)pyridin-2-yl]thiazol-2-yl}amino)piperidin-1-yl]ethanone], the IC50 is < 100 nM in test [1] and 100 to 1000 nM in test [2].
For `Cc1ccnc(Nc2cccc(-c3cnc(N4CCC[C@H]4C(N)=O)s3)n2)c1` [Compound A-528, (S)-1-{5-[6-(4-methylpyridin-2-ylamino)pyridin-2-yl]thiazol-2-yl}pyrrolidine-2-carboxamide] the same measures were < 100 nM and < 100 nM.
For `Cc1ccnc(Nc2cccc(-c3cnc(N4CCC[C@H]4C(=O)NCC(F)(F)F)s3)n2)c1` [Compound A-530, N-(2,2,2-trifluoroethyl)-(S)-1-{5-[6-(4-methylpyridin-2-ylamino)pyridin-2-yl]thiazol-2-yl}pyrrolidine-2-carboxamide] the same measures were < 100 nM and 100 to 1000 nM.
For `Cc1ccnc(Nc2cccc(-c3cnc(N4CCC[C@@H](C(=O)O)C4)s3)n2)c1` [Compound A-531, (R)-1-{5-[6-(4-methylpyridin-2-ylamino)pyridin-2-yl]thiazol-2-yl}piperidine-3-carboxylic acid], in that order: < 100 nM and 100 to 1000 nM.
As to `Cc1ccnc(Nc2cccc(-c3cnc(N4CCC[C@@H](CO)C4)s3)n2)c1` [Compound A-532, ((R)-1-{5-[6-(4-methylpyridin-2-ylamino)pyridin-2-yl]thiazol-2-yl}piperidin-3-yl)methanol], the 50% inhibitory concentration (IC50) in test [1] and in test [2] was < 100 nM throughout.
In the case of `Cc1ccnc(Nc2cccc(-c3cnc(N4CCC[C@@H](C(N)=O)C4)s3)n2)c1` [Compound A-533, (R)-1-{5-[6-(4-methylpyridin-2-ylamino)pyridin-2-yl]thiazol-2-yl}piperidine-3-carboxamide], the 50% inhibitory concentration (IC50) in test [1] is < 100 nM; in test [2], 100 to 1000 nM.
As for `CCN(c1ncc(-c2cccc(Nc3cc(C)ccn3)n2)s1)C1CCN(C(C)=O)CC1` [Compound A-534, 1-[4-(N-ethyl-N-{5-[6-(4-methylpyridin-2-ylamino)pyridin-2-yl]thiazol-2-yl}amino)piperidin-1-yl]ethanone], the values for the IC50 in test [1] and in test [2] were < 100 nM and 100 to 1000 nM, respectively.
With `CC(=O)N1CCC(N(CC(F)(F)F)c2ncc(-c3cccc(Nc4cc(C)ccn4)n3)s2)CC1` [Compound A-535, 1-{4-[N-{5-[6-(4-methylpyridin-2-ylamino)pyridin-2-yl]thiazol-2-yl}-N-(2,2,2-trifluoroethyl)amino]piperidin-1-yl}ethanone], the 50% inhibitory concentration (IC50) in test [1] was < 100 nM; in test [2] it was > 1000 nM.
As to `CC(=O)N1CCC(N(C)c2ncc(-c3cccc(Nc4cc(Cl)ccn4)n3)s2)CC1` [Compound A-536, 1-[4-(N-{5-[6-(4-chloropyridin-2-ylamino)pyridin-2-yl]thiazol-2-yl}-N-methylamino)piperidin-1-yl]ethanone], the IC50 is < 100 nM in test [1] and 100 to 1000 nM in test [2].
For `CN(c1ncc(-c2cccc(Nc3cc(Cl)ccn3)n2)s1)C1CCN(C(=O)CO)CC1` [Compound A-537, 1-[4-(N-{5-[6-(4-chloropyridin-2-ylamino)pyridin-2-yl]thiazol-2-yl}-N-methylamino)piperidin-1-yl]-2-hydroxyethanone], in that order: < 100 nM and 100 to 1000 nM.
For `COc1ccnc(Nc2cccc(-c3cnc(N4CC[C@@H](O)C4)s3)n2)c1` [Compound A-538, (R)-1-{5-[6-(4-methoxypyridin-2-ylamino)pyridin-2-yl]thiazol-2-yl}pyrrolidin-3-ol], in that order: < 100 nM and 100 to 1000 nM.
For `O[C@@H]1CCN(c2ncc(-c3cccc(Nc4cc(Cl)ccn4)n3)s2)C1` [Compound A-539, (R)-1-{5-[6-(4-chloropyridin-2-ylamino)pyridin-2-yl]thiazol-2-yl}pyrrolidin-3-ol] the same measures were < 100 nM and < 100 nM.
For `Cc1ccnc(Nc2cccc(-c3cnc(N4CCC(C)(C(=O)O)CC4)s3)n2)c1` [Compound A-540, 4-methyl-1-{5-[6-(4-methylpyridin-2-ylamino)pyridin-2-yl]thiazol-2-yl}piperidine-4-carboxylic acid], the half-maximal inhibitory concentration (IC50) in test [1] is < 100 nM; in test [2], 100 to 1000 nM.
For `COc1ccnc(Nc2cccc(-c3cnc(N4CCC[C@H]4C(N)=O)s3)n2)c1` [Compound A-541, (S)-1-{5-[6-(4-methoxypyridin-2-ylamino)pyridin-2-yl]thiazol-2-yl}pyrrolidine-2-carboxamide] the same measures were < 100 nM and 100 to 1000 nM.
On to `NC(=O)[C@@H]1CCCN1c1ncc(-c2cccc(Nc3cc(Cl)ccn3)n2)s1` [Compound A-542, (S)-1-{5-[6-(4-chloropyridin-2-ylamino)pyridin-2-yl]thiazol-2-yl}pyrrolidine-2-carboxamide], for which the IC50 in test [1] and in test [2] was < 100 nM each time.
Regarding `CC(=O)c1ccnc(Nc2cccc(-c3cnc(N4CCC(C(N)=O)CC4)s3)n2)c1` [Compound A-543, 1-{5-[6-(4-acetylpyridin-2-ylamino)pyridin-2-yl]thiazol-2-yl}piperidine-4-carboxamide], the results for the half-inhibitory concentration (IC50) in test [1] and in test [2] were < 100 nM and 100 to 1000 nM, respectively.
For `Cc1ccnc(Nc2cccc(-c3cnc(N(CCO)CCO)s3)n2)c1` [Compound A-544, 2-(N-(2-hydroxyethyl)-N-{5-[6-(4-methylpyridin-2-ylamino)pyridin-2-yl]thiazol-2-yl}amino)ethanol], in that order: < 100 nM and < 100 nM.
With `OCCN(CCO)c1ncc(-c2cccc(Nc3cc(Cl)ccn3)n2)s1` [Compound A-545, 2-[N-{5-[6-(4-chloropyridin-2-ylamino)pyridin-2-yl]thiazol-2-yl}-N-(2-hydroxyethyl)amino]ethanol], the 50% inhibitory concentration (IC50) in test [1] and in test [2] was < 100 nM in each case.
With `O=C(O)[C@@H]1CCCN(c2ncc(-c3cccc(Nc4cc(Cl)ccn4)n3)s2)C1` [Compound A-546, (R)-1-{5-[6-(4-chloropyridin-2-ylamino)pyridin-2-yl]thiazol-2-yl}piperidine-3-carboxylic acid], the results for the 50% inhibitory concentration (IC50) in test [1] and in test [2] were < 100 nM and 100 to 1000 nM, respectively.
